Measured values as given in patent US20070243270A1, “METHODS AND KITS FOR REDUCING CELLULAR DAMAGE, INHIBITING FREE RADICAL PRODUCTION, AND SCAVENGING FREE RADICALS IN MAMMALS” (priority 2003, published 2007).
In brackets after ≈: the same amount, converted by molar mass. Like-named read-outs stand apart in the source and are kept apart here.

Columns and labels:
3PC cells = assay: ATP-bioluminescence assay, reactive oxygen species-stimulated growth of cells; assay type: cell-based
codon 61 of c-Ha-ras = assay: DMBA-induced Ha-ras codon 61 mutation in mouse skin DNA; assay type: in vivo, female SENCAR mice; details: acetone neg. control 3.05
Experimental: One of the best studied in vivo models for evaluation of environmental stress response effects on DNA and cell damage is the mouse skin system in which the skin is treated with a chemical compound known to damage DNA and cell structure and function. […] Exp. Med. Biol. 1995, 369, 167). […] Following dosing and treatment, skin DNA and cell structure and function were evaluated using three endpoints, epidermal hyperplasia, 8-OH-dG formation, and Ha-ras mutation. Each method is described briefly below. Seven week old, pathogen free, female SENCAR mice were purchased from the National Cancer Institute (NCI, Frederick, Md.). Mice were randomized by weight and separated into groups (n=5 mice per group). Experimental groups of mice were treated on shaved dorsal skin with antioxidants, 15 min prior to treatment with DMBA (25 μg per treatment). […] Epidermal thickness was determined in each animal from at least 20 randomly selected sites per animal using formalin-fixed, paraffin-embedded 5 μm sections stained with hematoxylin and eosin. […] DNA isolated from freshly-frozen tissues of 5 mice per group was analyzed for […] of c-Ha-ras by PCR analysis. […] The ratio of the amount of wild type DNA to mutated DNA was determined by quantifying intensity of 32P labeling on autoradiograms. […]

[1] = tested on: DMBA-induced epidermal hyperplasia; assay: Inhibition of DMBA-induced epidermal hyperplasia in mouse skin; assay type: in vivo, female SENCAR mice
Experimental: One of the best studied in vivo models for evaluation of environmental stress response effects on DNA and cell damage is the mouse skin system in which the skin is treated with a chemical compound known to damage DNA and cell structure and function. […] Exp. Med. Biol. 1995, 369, 167). […] Following dosing and treatment, skin DNA and cell structure and function were evaluated using three endpoints, epidermal hyperplasia, 8-OH-dG formation, and Ha-ras mutation. Each method is described briefly below. Seven week old, pathogen free, female SENCAR mice were purchased from the National Cancer Institute (NCI, Frederick, Md.). Mice were randomized by weight and separated into groups (n=5 mice per group). Experimental groups of mice were treated on shaved dorsal skin with antioxidants, 15 min prior to treatment with DMBA (25 μg per treatment). In topical experiments, different doses, i.e., 0.5, 1.0, 2.0, and/or 4.0 mg, of test or reference antioxidants per mouse were applied topically twice weekly for a total of 8 treatments (4 weeks). […] Negative control groups were treated with vehicle (acetone) only. […] Most antioxidants were administered in acetone. Antioxidants that were not soluble in acetone to the desired concentration, were dissolved in the necessary volume: mixture of acetone and water or ethanol. All topical treatments were administered in a final volume of 0.2 mL. […] The same control groups were maintained. Both positive and negative control groups were fed a standard AIN-93G diet (i.e., not supplemented with antioxidants). […] At sacrifice the shaved dorsal skin section was removed. […] Epidermal thickness was determined in each animal from at least 20 randomly selected sites per animal using formalin-fixed, paraffin-embedded 5 μm sections stained with hematoxylin and eosin. The remaining skin was frozen in liquid nitrogen. All frozen sections were stored at −70 C until analysis for isolation of DNA.

[2] = 3PC cells, read-out: Estimated IC50 (mg/L) in ATP Bioluminescence Assay

SMILES: O=C1O[C@H]([C@@H](O)CO)C(O)=C1O [Ascorbic Acid, L-ascorbic acid]
- IC50 (3PC cells; [2]): 4.6 mg/L (≈ 26.1 µM)
- IC50 (3PC cells; ATP bioluminescence, calculated on ascorbic acid content, read-out: Estimated IC50 Based on vitamin C content): 4.6 mg/L (≈ 26.1 µM)
- IC50 (3PC cells; ATP bioluminescence, read-out: Estimated IC50 based on weight): 4.6 mg/L (≈ 26.1 µM)
- Ha-ras Formation (codon 61 of c-Ha-ras; topical 4 mg + DMBA): 6.19
- Inhibition of DMBA-Induced Epidermal Hyperplasia ([1]; dietary 1.0%): 83%
- Inhibition of DMBA-Induced Epidermal Hyperplasia ([1]; dietary 5.0%): 86%
- Inhibition of DMBA-Induced Epidermal Hyperplasia ([1]; topical application 0.5 mg): 66%
- Inhibition of DMBA-Induced Epidermal Hyperplasia ([1]; topical application 2.0 mg): 66%

SMILES: CC1=C[C@H](O)CC(C)(C)[C@H]1/C=C/C(C)=C/C=C/C(C)=C/C=C/C=C(C)/C=C/C=C(C)/C=C/C1=C(C)C[C@@H](O)CC1(C)C [Lutein, lutein]
- IC50 (3PC cells; [2]): 70.8 mg/L (≈ 124 µM)

SMILES: Cc1c2ccccc2c(C)c2c1ccc1ccccc12 [DMBA, dimethylbenzanthracene]
- Ha-ras Formation (codon 61 of c-Ha-ras; DMBA only (pos. control)): 18.39
